This passage reports Ki results from patent US11390603B2, “Crystalline forms of a biphenyl compound” (THERAVANCE BIOPHARMA R&D IP, LLC, priority 2005, dated 2022).

Test [1] has as its target T1, M3 muscarinic receptor subtype (Homo sapiens, UniProt P20309).
T1 construct: expressed in transfected cells
Nature of the test: Radioligand binding assay ([3H]-NMS displacement). The note with it: CHO cell membranes, [3H]-NMS at 1 nM; tested in this or a similar assay. The method, then:
CHO cell lines stably expressing cloned human hM1, hM2, hM3 and hM4 muscarinic receptor subtypes, respectively, were grown to near confluency in medium consisting of HAM's F-12 supplemented with 10% FBS and 250 μg/mL Geneticin. The cells were grown in a 5% CO2, 37° C. incubator and lifted with 2 mM EDTA in dPBS. Cells were collected by 5 minute centrifugation at 650×g, and cell pellets were either stored frozen at −80° C. or membranes were prepared immediately. For membrane preparation, cell pellets were resuspended in lysis buffer and homogenized with a Polytron PT-2100 tissue disrupter (Kinematica AG; 20 seconds×2 bursts). Crude membranes were centrifuged at 40,000×g for 15 minutes at 4° C. […] The protein concentration of the membrane suspension was determined by the method described in Lowry, O. et al., Journal of Biochemistry 193:265 (1951). […]
Radioligand binding assays were performed in 96-well microtiter plates in a total assay volume of 100 μL. […] Filter plates were rinsed three times with wash buffer (10 mM HEPES) to remove unbound radioactivity. […] The plates were then counted in a PerkinElmer Topcount liquid scintillation counter (PerkinElmer Inc., Wellesley, Mass.). Binding data were analyzed by nonlinear regression analysis with the GraphPad Prism Software package (GraphPad Software, Inc., San Diego, Calif.) using the one-site competition model. […]

The next test deals with T2, hM3 receptor (Homo sapiens, UniProt P20309).
T2 construct: expressed in transfected cells
T2 sequence (P20309 whole entry): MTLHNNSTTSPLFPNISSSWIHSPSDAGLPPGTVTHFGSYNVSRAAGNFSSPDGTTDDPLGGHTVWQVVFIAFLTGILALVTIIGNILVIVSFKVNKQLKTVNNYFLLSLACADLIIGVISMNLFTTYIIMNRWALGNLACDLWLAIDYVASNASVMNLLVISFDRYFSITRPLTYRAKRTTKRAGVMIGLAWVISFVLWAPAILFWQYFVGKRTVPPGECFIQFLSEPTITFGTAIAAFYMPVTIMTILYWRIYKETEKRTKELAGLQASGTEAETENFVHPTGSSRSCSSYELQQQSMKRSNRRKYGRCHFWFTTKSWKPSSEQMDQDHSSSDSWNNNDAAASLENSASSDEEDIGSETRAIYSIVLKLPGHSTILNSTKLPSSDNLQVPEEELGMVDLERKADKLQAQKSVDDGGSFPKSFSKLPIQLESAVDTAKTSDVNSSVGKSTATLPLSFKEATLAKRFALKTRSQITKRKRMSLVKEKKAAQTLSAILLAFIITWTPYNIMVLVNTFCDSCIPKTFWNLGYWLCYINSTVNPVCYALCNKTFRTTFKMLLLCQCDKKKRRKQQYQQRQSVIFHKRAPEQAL
Kind of test: Blockade of agonist-mediated calcium release via FLIPR. The test is classed as cell-based. The conditions noted are these: CHO cells stably expressing the hM3 receptor; this or a similar assay. An excerpt:
Muscarinic receptor subtypes (M1, M3 and M5 receptors), which couple to Gq proteins, activate the phospholipase C (PLC) pathway upon agonist binding to the receptor. As a result, activated PLC hydrolyzes phosphatyl inositol diphosphate (PIP2) to diacylglycerol (DAG) and […] (IP3), which in turn generates calcium release from intracellular stores, i.e., endoplasmic and sarcoplasmic reticulum. The FLIPR (Molecular Devices, Sunnyvale, Calif.) assay capitalizes on this increase in intracellular calcium by using a calcium sensitive dye (Fluo-4AM, Molecular Probes, Eugene, Oreg.) that fluoresces when free calcium binds. This fluorescence event is measured in real time by the FLIPR, which detects the change in fluorescence from a monolayer of cells cloned with human M1 and M3, and chimpanzee M5 receptors. Antagonist potency can be determined by the ability of antagonists to inhibit agonist-mediated increases in intracellular calcium. […]
To determine antagonist potency, the dose-dependent stimulation of intracellular Ca^2+ release for oxotremorine is first determined so that antagonist potency can later be measured against oxotremorine stimulation at an EC90 concentration. […]
The change of fluorescence is expressed as maximum fluorescence minus baseline fluorescence for each well. […]

Where only a bound is given, the exact number is not on record here.

T1 sequence (P20309 whole entry): as above

As a reminder, the Ki is the dissociation constant of the complex between target and ligand, obtained from inhibition or displacement. On to `CN(CCN1CCC(OC(=O)Nc2ccccc2-c2ccccc2)CC1)C(=O)c1ccc(CN2CCC(C(N)=O)CC2)cc1` [compound of formula I, biphenyl-2-ylcarbamic acid 1-(2-{[4-(4-carbamoylpiperidin-1-ylmethyl)benzoyl]methylamino}ethyl)piperidin-4-yl ester], for which the Ki (in test [1]; at hM3 receptor) was under 5 nM each time.
